pKi: −log10 of the molar value.
What was measured:
Carbonic anhydrase 4 = Carbonic anhydrase 4 (Homo sapiens, UniProt P22748); experiment: Inhibition of human CA4 using 4NPA as substrate for 3 mins by Lineweaver burk plot analysis
Carbonic anhydrase 1 = Carbonic anhydrase 1 (Homo sapiens, UniProt P00915); experiment: Noncompetitive inhibition of human CA1 using 4NPA as substrate for 3 mins by Lineweaver burk plot analysis
Carbonic anhydrase 2 = Carbonic anhydrase 2 (Homo sapiens, UniProt P00918); experiment: Inhibition of human CA2 using 4NPA as substrate for 3 mins by Lineweaver burk plot analysis
Carbonic anhydrase 6 = Carbonic anhydrase 6 (Homo sapiens, UniProt P23280); experiment: Inhibition of human CA6 using 4NPA as substrate for 3 mins by Lineweaver burk plot analysis
Carbonic anhydrase 6, sequence (P23280 whole entry): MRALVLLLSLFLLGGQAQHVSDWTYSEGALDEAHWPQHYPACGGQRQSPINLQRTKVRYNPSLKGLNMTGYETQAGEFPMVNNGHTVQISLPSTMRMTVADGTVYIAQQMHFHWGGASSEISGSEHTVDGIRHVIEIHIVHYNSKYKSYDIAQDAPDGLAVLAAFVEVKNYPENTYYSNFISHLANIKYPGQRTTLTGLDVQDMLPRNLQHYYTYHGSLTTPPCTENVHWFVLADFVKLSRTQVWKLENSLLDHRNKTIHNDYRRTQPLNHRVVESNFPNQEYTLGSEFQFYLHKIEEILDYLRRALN

Carbonic anhydrase 4, sequence (P22748 whole entry): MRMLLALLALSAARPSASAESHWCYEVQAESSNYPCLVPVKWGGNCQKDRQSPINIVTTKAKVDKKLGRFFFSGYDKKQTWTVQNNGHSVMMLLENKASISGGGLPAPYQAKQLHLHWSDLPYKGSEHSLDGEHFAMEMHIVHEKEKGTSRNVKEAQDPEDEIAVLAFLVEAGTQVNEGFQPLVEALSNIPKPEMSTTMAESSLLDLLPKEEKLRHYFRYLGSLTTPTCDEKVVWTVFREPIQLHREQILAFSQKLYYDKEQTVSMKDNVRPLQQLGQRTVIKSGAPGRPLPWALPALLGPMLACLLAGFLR
Carbonic anhydrase 1, sequence (P00915 whole entry): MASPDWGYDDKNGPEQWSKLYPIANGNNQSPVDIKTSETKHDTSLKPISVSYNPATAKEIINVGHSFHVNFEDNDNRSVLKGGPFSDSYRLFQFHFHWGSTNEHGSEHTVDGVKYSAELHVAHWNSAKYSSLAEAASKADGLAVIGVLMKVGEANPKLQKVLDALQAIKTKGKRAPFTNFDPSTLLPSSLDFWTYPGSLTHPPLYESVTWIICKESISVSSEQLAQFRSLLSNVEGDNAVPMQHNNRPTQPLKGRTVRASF

Structure (SMILES) | pKi (Carbonic anhydrase 4) | pKi (Carbonic anhydrase 1) | pKi (Carbonic anhydrase 2) | pKi (Carbonic anhydrase 6)
COc1ccc(Cc2ccc(OC)c(OC)c2)cc1OC | 3.84 | 3.27 | 4.23 | 3.42
COc1c(Br)c(Br)c(Cc2c(Br)c(Br)c(OC)c(OC)c2Br)c(Br)c1OC | 4.49 | 4.36 | 4.45 | 4.53
COc1ccc(C(=O)O)cc1OC [VERATRIC ACID] | 5.19 | – | – | 4.61

The remaining lines, values ahead:

pKi (Carbonic anhydrase 4) | pKi (Carbonic anhydrase 1) | pKi (Carbonic anhydrase 2) | pKi (Carbonic anhydrase 6) | Structure (SMILES)
5.12 | 4.74 | 5.25 | 4.86 | Oc1ccc(Cc2ccc(O)c(O)c2)cc1O
– | – | – | 3.63 | COc1ccccc1 [ANISOLE]
5.61 | – | – | – | O=C(O)c1ccc(O)c(O)c1 [PROTOCATECHUIC ACID]
